Laboratory results: patent US5043340A, “Derivatives of 4-desacetyl VLB C-3 carboxhydrazide” (Eli Lilly and Company, priority 1990, dated 1991)
Counter-ions that a name gives are not always drawn. Like-named read-outs stand apart in the source and are kept apart here.

Assays:
[1] = system: experimental malignancies; settings: in vivo; cited from earlier work
[2] = pKa; type: physicochemical; settings: for pKa (first value) / pKa (second value) / pKa (third value): 66% DMF
[3] = system: human leukemic cells (CCRF-CEM cell line); test: CCRF-CEM Cytotoxicity Assay (72 h, Coulter particle counter); type: cell-based; settings: 37° C., read-out: IC50 (concentration giving 50% growth inhibition)
Description: The CEM cells were grown in RPMI 1640 media (MA Bioproducts) at 37° C. in humidified atmospheric conditions of 95% air and 5% CO2. The cells were grown in static suspension and maintained in log growth phase at a concentration of 3-7×10^5 cells/ml. The cells were dispersed in wells at a concentration of 4.8×10^4 /well. The drug was dissolved in dimethyl sulfoxide and was added at different dilutions to the cluster plates (wells). The cluster plates were incubated at 37° C. for 72 hours. After 72 hours the wells were read using a ZBI Coulter particle counter. Table 3 below gives the results of such testing of several compounds represented by Formula I above. In the table, Column 1 gives the name of the compound and Column 2 gives the IC50 (concentration giving 50% growth inhibition) in μg/ml.

[4] = system: human lung adenocarcinoma cells (P3/UCLA cell line); test: P3/UCLA - GIEMSA ASSAY (5 days); type: cell-based; settings: 120 h, 37° C., free compound, read-out: IC50 (concentration giving 50% growth inhibition)
[5] = system: P3/UCLA lung adenocarcinoma xenografts; test: in vivo test against xenografts of P3/UCLA lung adenocarcinoma in female nude mice; settings: days 2, 5 and 8, 28-day results
Description: The compounds were tested in vivo against xenografts of P3/UCLA lung adenocarcinoma in female nude mice. The test was begun by implanting each mouse with 10^7 P3/UCLA tumor cells, subcutaneously. On each of days 2, 5, and 8 after implantation, each mouse was injected with a conjugate or a compound in physiological buffered saline. Control mice were injected with saline only. The doses of conjugate or of vinca intermediate (based on vinca hydrazide content) are indicated below. The size of the tumors induced by implantation was measured on days 14, 21, and 28 after implantation. Each treatment group consisted of five mice.

[6] = solvent not given, read-out: pKa (first value)
[7] = 66% dmf, read-out: pKa (second value)
[8] = 66% dmf, read-out: pKa (first value)
[9] = 66% dmf, read-out: pKa (third value)
[10] = 1.00 mg/kg (based on vinca hydrazide content)
[11] = 2.00 mg/kg (based on vinca hydrazide content)

For CCC1(O)CN2CCc3c([nH]c4ccccc34)C(C(=O)OC)(c3cc4c(cc3OC)N(C)C3C(O)(C(=O)OC)CC5(CC)C=CCN6CCC43C65)CC(C2)C1O (centres unmarked) [4-desacetoxy-3'-hydroxyvinblastine], the “found active in the treatment of experimental malignancies in animals” value (shortened to “found active in the treatment”) [1] is given as “active”.
For CCC1(O)CC2CN(CCc3c([nH]c4ccccc34)C(C(=O)OC)(c3cc4c(cc3OC)N(C)C3C(O)(C(=O)OC)CC5(CC)C=CCN6CCC43C65)C2)C1 (centres unmarked) [4-desacetoxyvinblastine], the “found active in the treatment” value [1] is given as “active”.
With CC(=O)CCCC(=O)NCCC(=O)O [6-[(2-Carboxyethyl)amino]-2,6-dioxohexane] the pKa [2, 6] was 7.1.
For CCC1(O)CC2CN(CCc3c([nH]c4ccccc34)C(C(=O)OC)(c3cc4c(cc3OC)N(C)C3C(O)(C(=O)NN=C(C)CCCC(=O)O)C(O)C5(CC)C=CCN6CCC43C65)C2)C1 (centres unmarked) [Example 2, 4-Desacetyl VLB C-3 N^2-(4-carboxy-1-methylbutylidene)carboxhydrazide], the “pKa (first value)” value [2] was 5.1, the “pKa (second value)” value [2] was 6.6 and the “pKa (third value)” value [2] was 7.7.
In the case of CCC1(O)CC2CN(CCc3c([nH]c4ccccc34)C(C(=O)OC)(c3cc4c(cc3OC)N(C)C3C(O)(C(=O)NN=C(C)CCCCC(=O)O)C(O)C5(CC)C=CCN6CCC43C65)C2)C1 (centres unmarked) [Example 4, 4-Desacetyl VLB C-3 N^2-(5-carboxy-1-methylpentylidene)carboxhydrazide], the “pKa (first value)” value [2] is reported as 5.3, the “pKa (third value)” value [2] is reported as 8.1 and the pKa [2, 7] is reported as 7.
Molecule CCC1(O)CC2CN(CCc3c([nH]c4ccccc34)C(C(=O)OC)(c3cc4c(cc3OC)N(C)C3C(O)(C(=O)NN=C(C)CCCCC(=O)O)C(O)C5(CC)C=CCN6CCC43C65)C2)C1 (centres unmarked) [Example 5, 4-Desacetyl VLB C-3 N^2-(5-carboxy-1-methylpentylidene)carboxhydrazidesulfate salt] has an IC50 [3] of 0.2 µg/mL.
Work on CCC1(O)CC2CN(CCc3c([nH]c4ccccc34)C(C(=O)OC)(c3cc4c(cc3OC)N(C)C3C(O)(C(=O)NN=C(C)CCCC(=O)NCCC(=O)O)C(O)C5(CC)C=CCN6CCC43C65)C2)C1 (centres unmarked) [Example 6, 4-Desacetyl VLB C-3 N^2-(5-[(2-carboxyethyl)amino]-1-methyl-5-oxopentylidene)carboxhydrazide] yielded a pKa [2, 8] of 5.1, a pKa [2, 7] of 6.6 and a pKa [2, 9] of 7.3.
In the case of CCC1(O)CC2CN(CCc3c([nH]c4ccccc34)C(C(=O)OC)(c3cc4c(cc3OC)N(C)C3C(O)(C(=O)NN=C(C)CCCC(=O)NCCC(=O)O)C(O)C5(CC)C=CCN6CCC43C65)C2)C1 (centres unmarked) [Example 7, 4-Desacetyl VLB C-3 N^2-(5-[(2-carboxyethyl)amino]-1-methyl-5-oxopentylidene)carboxhydrazide sulfate salt], the IC50 [3] is reported as 0.095 µg/mL.
In the case of CCC1(O)CC2CN(CCc3c([nH]c4ccccc34)C(C(=O)OC)(c3cc4c(cc3OC)N(C)C3C(O)(C(=O)NN=C(C)CCCCC(=O)NCCC(=O)O)C(O)C5(CC)C=CCN6CCC43C65)C2)C1 (centres unmarked) [Example 8, 4-Desacetyl VLB C-3 N^2-(6-[(2-carboxyethyl)amino]-1-methyl-6-oxohexylidene)carboxhydrazide], the pKa [2, 8] is reported as 5, the pKa [2, 7] is reported as 6.2 and the pKa [2, 9] is reported as 7.8.
For CCC1(O)CC2CN(CCc3c([nH]c4ccccc34)C(C(=O)OC)(c3cc4c(cc3OC)N(C)C3C(O)(C(=O)NN=C(C)CCCCC(=O)NCCC(=O)O)C(O)C5(CC)C=CCN6CCC43C65)C2)C1 (centres unmarked) [Example 9, 4-Desacetyl VLB C-3 N^2-(6-[(2-carboxyethyl)amino]-1-methyl-6-oxohexylidene)carboxhydrazide sulfate salt], the IC50 [3] was 0.068 µg/mL, the IC50 [4] was 0.043 µg/mL and the “% Inhibition” value [5, 10] was 43%. For the same molecule, the “% Inhibition” value [5, 11] was 35%.
For CCC1(O)CC2CN(CCc3c([nH]c4ccccc34)C(C(=O)OC)(c3cc4c(cc3OC)N(C)C3C(O)(C(=O)NNC(C)CCC(=O)O)C(O)C5(CC)C=CCN6CCC43C65)C2)C1 (centres unmarked) [Example 10, 4-Desacetyl VLB C-3 N^2-(3-carboxy-1-methylpropyl)carboxhydrazide], the “pKa (first value)” value [2] was 5.3, the “pKa (second value)” value [2] was 6.9 and the “pKa (third value)” value [2] was 7.9.
For CCC1(O)CC2CN(CCc3c([nH]c4ccccc34)C(C(=O)OC)(c3cc4c(cc3OC)N(C)C3C(O)(C(=O)NNC(C)CCC(=O)O)C(O)C5(CC)C=CCN6CCC43C65)C2)C1 (centres unmarked) [Example 11, 4-Desacetyl VLB C-3 N^2-(3-carboxy-1-methylpropyl)carboxhydrazide sulfate salt], the IC50 [3] was 0.1 µg/mL.
Work on CCC1(O)CC2CN(CCc3c([nH]c4ccccc34)C(C(=O)OC)(c3cc4c(cc3OC)N(C)C3C(O)(C(=O)NNC(C)CCCCC(=O)O)C(O)C5(CC)C=CCN6CCC43C65)C2)C1 (centres unmarked) [Example 13, 4-Desacetyl VLB C-3 N^2-(5-carboxy-1-methylpentyl)carboxhydrazide sulfate salt] yielded an IC50 [3] of 0.4 µg/mL.
CCC1(O)CC2CN(CCc3c([nH]c4ccccc34)C(C(=O)OC)(c3cc4c(cc3OC)N(C)C3C(O)(C(=O)NNC(C)CCCC(=O)NCCC(=O)O)C(O)C5(CC)C=CCN6CCC43C65)C2)C1 (centres unmarked) [Example 14, 4-Desacetyl VLB C-3 N^2-(5-[(2-carboxyethyl)amino]-1-methyl-5-oxopentyl)carboxhydrazide] gave a pKa [2, 8] of 5.7, a pKa [2, 7] of 6.7 and a pKa [2, 9] of 7.9.
In the case of CCC1(O)CC2CN(CCc3c([nH]c4ccccc34)C(C(=O)OC)(c3cc4c(cc3OC)N(C)C3C(O)(C(=O)NNC(C)CCCC(=O)NCCC(=O)O)C(O)C5(CC)C=CCN6CCC43C65)C2)C1 (centres unmarked) [Example 15, 4-Desacetyl VLB C-3 N^2-(5-[(2-carboxyethyl)amino]1-methyl-5-oxopentyl)carboxhydrazide sulfate salt], the IC50 [3] is reported as 0.046 µg/mL.
With CCC1(O)CC2CN(CCc3c([nH]c4ccccc34)C(C(=O)OC)(c3cc4c(cc3OC)N(C)C3C(O)(C(=O)NNC(C)CCCCC(=O)NCCC(=O)O)C(O)C5(CC)C=CCN6CCC43C65)C2)C1 (centres unmarked) [Example 17, 4-Desacetyl VLB C-3 N^2-(6-[(2-carboxyethyl)amino]-1-methyl-6-oxohexyl)carboxhydrazide sulfate salt] the IC50 [3] was 0.039 µg/mL, the IC50 [4] was 0.217 µg/mL and the “% Inhibition” value [5, 10] was 20%. The “% Inhibition” value [5, 11] was 39%.
In the case of CCC1(O)CC2CN(CCc3c([nH]c4ccccc34)C(C(=O)OC)(c3cc4c(cc3OC)N(C)C3C(O)(C(=O)NNC(C)CCCCC(=O)NCCC(=O)OC)C(O)C5(CC)C=CCN6CCC43C65)C2)C1 (centres unmarked) [Example 30, 4-Desacetyl VLB C-3 N^2-(6-[(3-methoxy-3-oxopropyl)amino]-1-methyl-6-oxohexyl)carboxhydrazide], the pKa [2, 6] is reported as 5.4 and the pKa ([2]; solvent not given, read-out: pKa (second value)) is reported as 7.5.
In the case of CC[C@]1(O)C[C@@H]2CN(CCc3c([nH]c4ccccc34)[C@@](C(=O)OC)(c3cc4c(cc3OC)N(C)[C@H]3[C@@](O)(C(=O)OC)[C@H](OC(C)=O)[C@]5(CC)C=CCN6CC[C@]43[C@@H]65)C2)C1 [VLB, vincaleukoblastine], the “found active in the treatment” value [1] is given as “active”.
In the case of CCC1CC2CN(CCc3c([nH]c4ccccc34)C(C(=O)OC)(c3cc4c(cc3OC)N(C)C3C(O)(C(=O)OC)C(OC(C)=O)C5(CC)C=CCN6CCC43C65)C2)C1 (centres unmarked) [deoxy VLB "A"], the “found active in the treatment” value [1] is given as “active”.
In the case of CCC1(O)CN2CCc3c([nH]c4ccccc34)C(C(=O)OC)(c3cc4c(cc3OC)N(C)C3C(O)(C(=O)OC)C(OC(C)=O)C5(CC)C=CCN6CCC43C65)CC(O)(C2)C1 (centres unmarked) [leurocolombine], the “found active in the treatment” value [1] is given as “active”.
For CC[C@]12CN3CCc4c([nH]c5ccccc45)[C@@](C(=O)OC)(c4cc5c(cc4OC)N(C=O)[C@H]4[C@@](O)(C(=O)OC)[C@H](OC(C)=O)[C@]6(CC)C=CCN7CC[C@]54[C@@H]76)C[C@@H](C3)[C@H]1O2 [leuroformine], the “found active in the treatment” value [1] is given as “active”.
For CC[C@]12CN3CCc4c([nH]c5ccccc45)[C@@](C(=O)OC)(c4cc5c(cc4OC)N(C)[C@H]4[C@@](O)(C(=O)OC)[C@H](OC(C)=O)[C@]6(CC)C=CCN7CC[C@]54[C@@H]76)C[C@H](C3)[C@H]1O2 [leurosine], the “found active in the treatment” value [1] is listed as “active”.
In the case of CCC1(O)CN2CCc3c([nH]c4ccccc34)C(C(=O)OC)(c3cc4c(cc3OC)N(C)C3C(O)(C(=O)OC)C(OC(C)=O)C5(CC)C=CCN6CCC43C65)CC(C2)C1O (centres unmarked) [vincadioline], the “found active in the treatment” value [1] is given as “active”.
For CC[C@]1(O)C[C@H]2CN(CCc3c([nH]c4ccccc34)[C@@](C(=O)OC)(c3cc4c(cc3OC)N(C=O)[C@H]3[C@@](O)(C(=O)OC)[C@H](OC(C)=O)[C@]5(CC)C=CCN6CC[C@]43[C@@H]65)C2)C1 [vincristine, leurocristine], the “found active in the treatment” value [1] is listed as “active”.
In the case of leurosidine, the “found active in the treatment” value [1] is given as “active”.
